The numbers were not newly measured in patent US20110308985A1, “COMPOSITION OF A LIPOSOMAL GEL CONTAINING HYDROCORTISONE, ITS METABOLITES, PRECURSORS OR MIXTURES THEREOF AND THE USE THEREOF” (priority 2009, published 2011), which cites them from elsewhere.

Molecules are shown by their SMILES.

For the compound `C[C@]12CCC(=O)C=C1CC[C@@H]1[C@@H]2[C@@H](O)C[C@@]2(C)[C@H]1CC[C@]2(O)C(=O)CO` [hydrocortisone, (11beta)-11,17,21-trihydroxypregn-4-ene-3,20-dione], the “serum peak relative to the physiological morning peak” value (about 1 hour after intake of a tablet) is on record as “over 3 times”. In addition, where the note is “oral administration form”, the biological half-life result was “about 100 minutes”.
